In US8377980B2, “Hepatitis C virus inhibitors” (Bristol-Myers Squibb Company, priority 2009, dated 2013):

tested on: HCV 1b genotype; assay: HCV Replicon assay (HCV 1b genotype); type: cell-based; details: Hepatitis C virus; HCV 1b genotype replicon; Effective 50% inhibitory concentration; read-out: EC50
Procedure: An HCV Replicon assay was utilized in the present disclosure, and was prepared, conducted and validated as described in commonly owned PCT/US2006/022197 and in O'Boyle et al., Antimicrob. Agents Chemother., 49(4):1346-1353 (April 2005). Assay methods incorporating luciferase reporters have also been used as described (Apath.com).
HCV-neo replicon cells and replicon cells containing resistance substitutions in the NS5A region were used to test the currently described family of compounds. The compounds were determined to have differing degrees of reduced inhibitory activity on cells containing mutations vs. the corresponding inhibitory potency against wild-type cells. Thus, the compounds of the present disclosure can be effective in inhibiting the function of the HCV NS5A protein and are understood to be as effective in combinations as previously described in application PCT/US2006/022197 and commonly owned WO 04/014852. It should be understood that the compounds of the present disclosure can inhibit multiple genotypes of HCV. […] In one embodiment, compounds of the present disclosure are inhibitory versus 1a, 1b, 2a, 2b, 3a, 4a, and 5a genotypes. EC50 values against HCV 1b are as follows.

| Structure (SMILES) | EC50 [nM] |
| --- | --- |
| CC[C@H](NC(=O)OC)C(=O)N1[C@@H]2C[C@@H]2C[C@H]1c1nc(Cl)c(-c2ccc(-c3ccc(-c4[nH]c([C@@H]5C[C@H]6C[C@H]6N5C(=O)[C@@H](NC(=O)OC)C5CCOCC5)nc4Cl)cc3)cc2)[nH]1 [Example V9] | 0.0027 |
| COC(=O)NC(C(=O)N1[C@@H]2C[C@@H]2C[C@H]1c1nc(-c2ccc(-c3ccc(-c4c[nH]c([C@@H]5C[C@H]6C[C@H]6N5C(=O)[C@@H](NC(=O)OC)[C@H]5CCCOC5)n4)cc3)cc2)c(Cl)[nH]1)[C@H]1CCCOC1 (stereo partly shown) [ZY6] | 0.0108 |

same assay, conditions: Hepatitis C virus; HCV 1b genotype replicon; range class; read-out: EC50-Range

| Structure (SMILES) | EC50 [nM] |
| --- | --- |
| COC(=O)N[C@H](C(=O)N1[C@@H]2C[C@@H]2C[C@H]1c1nc(-c2ccc(-c3ccc4c(ccc5[nH]c([C@@H]6C[C@H]7C[C@H]7N6C(=O)[C@@H](NC(=O)OC)C6CCOCC6)nc54)c3)cc2)c(Cl)[nH]1)C1CCOCC1 [DSTL-2] | 0.01 to 0.1 |
| COC(=O)N[C@H](C(=O)N1[C@@H]2C[C@@H]2C[C@H]1c1nc(-c2ccc(-c3ccc(-c4nc([C@@H]5C[C@H]6C[C@H]6N5C(=O)[C@@H](NC(=O)OC)C5CCOCC5)[nH]c4F)cc3)cc2)c[nH]1)C1CCOCC1 [DSTL-6] | 0.001 to 0.01 |
| COC(=O)N[C@H](C(=O)N1[C@@H]2C[C@@H]2C[C@H]1c1nc(-c2ccc(-c3ccc(-c4nc([C@@H]5C[C@H]6C[C@H]6N5C(=O)[C@@H](NC(=O)OC)C5CCOCC5)[nH]c4F)cc3)cc2)c(F)[nH]1)C1CCOCC1 [DSTL-7] | 0.001 to 0.01 |
| COC(=O)N[C@H](C(=O)N1[C@@H](C)CC[C@H]1c1nc(-c2ccc(-c3ccc(-c4nc([C@@H]5CC[C@H](C)N5C(=O)[C@@H](NC(=O)OC)C5CCOCC5)[nH]c4F)cc3)cc2)c[nH]1)C1CCOCC1 [DSTL-9] | 0.001 to 0.01 |
| COC(=O)N[C@H](C(=O)N1[C@@H](C)CC[C@H]1c1nc(-c2ccc(-c3ccc(-c4nc([C@@H]5CC[C@H](C)N5C(=O)[C@@H](NC(=O)OC)C5CCOCC5)[nH]c4F)cc3)cc2)c(F)[nH]1)C1CCOCC1 [DSTL-10] | 0.001 to 0.01 |
| COC(=O)N[C@H](C(=O)N1C2C[C@@H]2C[C@H]1c1nc(-c2ccc(-c3ccc(-c4nc([C@@H]5CC6C[C@H]6N5C(=O)[C@@H](NC(=O)OC)C5CCOCC5)[nH]c4C#N)cc3)cc2)c[nH]1)C1CCOCC1 (stereo partly shown) [DSTL-12] | 0.01 to 0.1 |
| CC[C@H](NC(=O)OC)C(=O)N1[C@@H]2C[C@@H]2C[C@H]1c1ncc(-c2ccc(-c3ccc(-c4[nH]c([C@@H]5C[C@H]6C[C@H]6N5C(=O)[C@H](CC)NC(=O)OC)nc4Cl)cc3)cc2)[nH]1 [Example V1] | 0.001 to 0.01 |
| CC[C@H](NC(=O)OC)C(=O)N1[C@@H]2C[C@@H]2C[C@H]1c1nc(Cl)c(-c2ccc(-c3ccc(-c4[nH]c([C@@H]5C[C@H]6C[C@H]6N5C(=O)[C@H](CC)NC(=O)OC)nc4Cl)cc3)cc2)[nH]1 [Example V3] | 0.001 to 0.01 |
| CC[C@H](NC(=O)OC)C(=O)N1[C@@H]2C[C@@H]2C[C@H]1c1nc(Cl)c(-c2ccc(-c3ccc(-c4[nH]c([C@@H]5C[C@H]6C[C@H]6N5C(=O)[C@@H](NC(=O)OC)C5CCOCC5)nc4Cl)cc3)cc2)[nH]1 [Example V9] | 0.001 to 0.01 |
| COC(=O)N[C@H](C(=O)N1[C@@H](C)CC[C@H]1c1ncc(-c2ccc(-c3ccc(-c4[nH]c([C@@H]5CC[C@H](C)N5C(=O)[C@@H](NC(=O)OC)C(C)C)nc4Cl)cc3)cc2)[nH]1)C(C)C [GW2] | 0.001 to 0.01 |
| COC(=O)N[C@H](C(=O)N1C[C@@H](C)C[C@H]1c1ncc(-c2ccc(-c3ccc(-c4[nH]c([C@@H]5C[C@H](C)CN5C(=O)[C@@H](NC(=O)OC)C(C)C)nc4Cl)cc3)cc2)[nH]1)C(C)C [GW3] | 0.001 to 0.01 |
| COC(=O)N[C@H](C(=O)N1C[C@@H](C)C[C@H]1c1ncc(-c2ccc(-c3ccc(-c4[nH]c([C@@H]5C[C@H](C)CN5C(=O)[C@@H](NC(=O)OC)C5CCOCC5)nc4Cl)cc3)cc2)[nH]1)C1CCOCC1 [GW4] | 0.01 to 0.1 |
| COC(=O)N[C@H](C(=O)N1C[C@@H](C)C[C@H]1c1nc(Cl)c(-c2ccc(-c3ccc(-c4[nH]c([C@@H]5C[C@H](C)CN5C(=O)[C@@H](NC(=O)OC)C(C)C)nc4Cl)cc3)cc2)[nH]1)C(C)C [GW8] | 0.001 to 0.01 |
| COC(=O)N[C@H](C(=O)N1CCC[C@H]1c1nc(-c2ccc(-c3ccc(-c4nc([C@@H]5CCCN5C(=O)[C@@H](NC(=O)OC)C(C)C)[nH]c4Br)cc3)cc2)c[nH]1)C(C)C [JLR-1] | 0.001 to 0.01 |
| COC(=O)N[C@H](C(=O)N1CCC[C@H]1c1nc(-c2ccc(-c3ccc(-c4nc([C@@H]5CCCN5C(=O)[C@@H](NC(=O)OC)C(C)C)[nH]c4I)cc3)cc2)c[nH]1)C(C)C [JLR-2] | 0.001 to 0.01 |
| COC(=O)N[C@H](C(=O)N1[C@@H](C)CC[C@H]1c1nc(-c2ccc(-c3ccc4c(ccc5[nH]c([C@@H]6CC[C@H](C)N6C(=O)[C@@H](NC(=O)OC)C6CCOCC6)nc54)c3)cc2)c(Cl)[nH]1)C1CCOCC1 [JLR-5] | 0.001 to 0.01 |
| COC(=O)NC(C(=O)N1[C@@H]2C[C@@H]2C[C@H]1c1nc(-c2ccc(-c3ccc(-c4[nH]c([C@@H]5C[C@H]6C[C@H]6N5C(=O)C(NC(=O)OC)[C@H]5C[C@@H](C)O[C@@H](C)C5)nc4Cl)cc3)cc2)c[nH]1)[C@H]1C[C@@H](C)O[C@@H](C)C1 (stereo partly shown) [OL6] | 0.001 to 0.01 |
| COC(=O)N[C@H](C(=O)N1CCC[C@H]1c1ncc(-c2ccc(-c3ccc(-c4[nH]c([C@@H]5CCCN5C(=O)[C@@H](NC(=O)OC)C(C)C)nc4C4CC4)cc3)cc2)[nH]1)C(C)C [OL7] | 0.001 to 0.01 |
| C=CCc1nc([C@@H]2CCCN2C(=O)[C@@H](NC(=O)OC)C(C)C)[nH]c1-c1ccc(-c2ccc(-c3cnc([C@@H]4CCCN4C(=O)[C@@H](NC(=O)OC)C(C)C)[nH]3)cc2)cc1 [OL15] | 0.001 to 0.01 |
| C=CCc1cc([C@@H]2CCCN2C(=O)[C@@H](NC(=O)OC)C2CCOCC2)[nH]c1-c1ccc(-c2ccc(-c3cnc([C@@H]4CCCN4C(=O)[C@@H](NC(=O)OC)C4CCOCC4)[nH]3)cc2)cc1 [OL16] | 0.01 to 0.1 |
| COC(=O)N[C@H](C(=O)N1CCC[C@H]1c1ncc(-c2ccc(-c3ccc(-c4[nH]c([C@@H]5CCCN5C(=O)[C@@H](NC(=O)OC)C(C)C)nc4-c4ccnn4C)cc3)cc2)[nH]1)C(C)C [OL19] | 0.01 to 0.1 |
| COC(=O)N[C@H](C(=O)N1[C@@H]2C[C@@H]2C[C@H]1c1nc(-c2ccc(-c3ccc(-c4nc([C@@H]5C[C@H]6C[C@H]6N5C(=O)[C@@H](NC(=O)OC)[C@@H]5CCCOC5)[nH]c4Cl)cc3)cc2)c(Cl)[nH]1)[C@@H]1CCCOC1 [ZY1, dimethyl(S,1S,1′S)-2,2′-((1R,1′R,3S,3′S,5R,5′R)-3,3′-(4,4′-(biphenyl-4,4′-diyl)bis(5-chloro-1H-imidazole-4,2-diyl))bis(2-azabicyclo[3.1.0]hexane-3,2-diyl))bis(2-oxo-1-((S)-tetrahydro-2H-pyran-3-yl)ethane-2,1-diyl)dicarbamate] | 0.001 to 0.01 |
| COC(=O)N[C@H](C(=O)N1[C@@H]2C[C@@H]2C[C@H]1c1nc(-c2ccc(-c3ccc(-c4nc([C@@H]5C[C@H]6C[C@H]6N5C(=O)[C@@H](NC(=O)OC)[C@H]5CCCOC5)[nH]c4Cl)cc3)cc2)c(Cl)[nH]1)[C@H]1CCCOC1 [ZY2, dimethyl(R,1S,1′S)-2,2′-((1R,1′R,3S,3′S,5R,5′R)-3,3′-(4,4′-(biphenyl-4,4′-diyl)bis(5-chloro-1H-imidazole-4,2-diyl))bis(2-azabicyclo[3.1.0]hexane-3,2-diyl))bis(2-oxo-1-((R)-tetrahydro-2H-pyran-3-yl)ethane-2,1-diyl)dicarbamate] | 0.001 to 0.01 |
| COC(=O)NC(C(=O)N1[C@@H]2C[C@@H]2C[C@H]1c1nc(-c2ccc(-c3ccc(-c4nc([C@@H]5C[C@H]6C[C@H]6N5C(=O)[C@H](NC(=O)OC)[C@H]5CCCOC5)[nH]c4Cl)cc3)cc2)c(Cl)[nH]1)[C@@H]1CCCOC1 (stereo partly drawn) [ZY3, dimethyl(R,1R,1′R)-2,2′-((1R,1′R,3S,3′S,5R,5′R)-3,3′-(4,4′-(biphenyl-4,4′-diyl)bis(5-chloro-1H-imidazole-4,2-diyl))bis(2-azabicyclo[3.1.0]hexane-3,2-diyl))bis(2-oxo-1-((R)-tetrahydro-2H-pyran-3-yl)ethane-2,1-diyl)dicarbamate] | 0.001 to 0.01 |
| COC(=O)N[C@@H](C(=O)N1[C@@H]2C[C@@H]2C[C@H]1c1nc(-c2ccc(-c3ccc(-c4nc([C@@H]5C[C@H]6C[C@H]6N5C(=O)[C@H](NC(=O)OC)[C@@H]5CCCOC5)[nH]c4Cl)cc3)cc2)c(Cl)[nH]1)[C@@H]1CCCOC1 [ZY4, dimethyl(S,1R,1′R)-2,2′-((1R,1′R,3S,3′S,5R,5′R)-3,3′-(4,4′-(biphenyl-4,4′-diyl)bis(5-chloro-1H-imidazole-4,2-diyl))bis(2-azabicyclo[3.1.0]hexane-3,2-diyl))bis(2-oxo-1-((S)-tetrahydro-2H-pyran-3-yl)ethane-2,1-diyl)dicarbamate] | 0.001 to 0.01 |
| COC(=O)N[C@@H](C(=O)N1[C@@H]2C[C@@H]2C[C@H]1c1nc(-c2ccc(-c3ccc(-c4nc([C@@H]5C[C@H]6C[C@H]6N5C(=O)[C@H](NC(=O)OC)[C@@H]5CCCOC5)[nH]c4Cl)cc3)cc2)c[nH]1)[C@H]1CCCOC1 [ZY5] | 0.001 to 0.01 |
| COC(=O)NC(C(=O)N1[C@@H]2C[C@@H]2C[C@H]1c1nc(-c2ccc(-c3ccc(-c4c[nH]c([C@@H]5C[C@H]6C[C@H]6N5C(=O)[C@@H](NC(=O)OC)[C@H]5CCCOC5)n4)cc3)cc2)c(Cl)[nH]1)[C@H]1CCCOC1 (stereo partly shown) [ZY6] | 0.01 to 0.1 |
| COCC[C@H](NC(=O)OC)C(=O)N1[C@@H]2C[C@@H]2C[C@H]1c1nc(-c2ccc(-c3ccc(-c4nc([C@@H]5C[C@H]6C[C@H]6N5C(=O)[C@H](CCOC)NC(=O)OC)[nH]c4Cl)cc3)cc2)c(Cl)[nH]1 [ZY7, dimethyl (2S,2′S)-1,1′-((1R,1′R,3S,3′S,5R,5′R)-3,3′-(4,4′-(biphenyl-4,4′-diyl)bis(5-chloro-1H-imidazole-4,2-diyl))bis(2-azabicyclo[3.1.0]hexane-3,2-diyl))bis(4-methoxy-1-oxobutane-2,1-diyl)dicarbamate] | 0.001 to 0.01 |
| COCC[C@H](NC(=O)OC)C(=O)N1[C@@H]2C[C@@H]2C[C@H]1c1nc(-c2ccc(-c3ccc(-c4nc([C@@H]5C[C@H]6C[C@H]6N5C(=O)[C@H](CCOC)NC(=O)OC)[nH]c4Cl)cc3)cc2)c[nH]1 [ZY8] | 0.001 to 0.01 |
